Eight compounds from US20220340633A1 (Adepthera LLC, priority 2016, published 2022) can be followed below.

SMILES strings stand for the structures. Entries after “also recorded” stand apart in the source; their conditions may differ.

Assay [1] concerns primary human lymphatic endothelia cells (HLEC). The assay is described as follows: HLEC survival in medium with 0.1% FBS, MTS assay. Conditions: 30, 100, and 300 nM, 72 hrs. (In general: Tetrazolium assays rely on reduction of a dye to a coloured formazan, in cell work by metabolically active cells.)
Experimental: The cells were cultured for 72 hrs, and cell viability was assayed with the MTS assay (Promega).
The target of the next assay is CLR/RAMP1 receptor (Homo sapiens, UniProt O60894+Q16602). Conditions: for receptor specificity of antagonist: CLR/RAMP1 versus CLR/RAMP2.
Chain of CLR/RAMP1 receptor (Q16602 23-461): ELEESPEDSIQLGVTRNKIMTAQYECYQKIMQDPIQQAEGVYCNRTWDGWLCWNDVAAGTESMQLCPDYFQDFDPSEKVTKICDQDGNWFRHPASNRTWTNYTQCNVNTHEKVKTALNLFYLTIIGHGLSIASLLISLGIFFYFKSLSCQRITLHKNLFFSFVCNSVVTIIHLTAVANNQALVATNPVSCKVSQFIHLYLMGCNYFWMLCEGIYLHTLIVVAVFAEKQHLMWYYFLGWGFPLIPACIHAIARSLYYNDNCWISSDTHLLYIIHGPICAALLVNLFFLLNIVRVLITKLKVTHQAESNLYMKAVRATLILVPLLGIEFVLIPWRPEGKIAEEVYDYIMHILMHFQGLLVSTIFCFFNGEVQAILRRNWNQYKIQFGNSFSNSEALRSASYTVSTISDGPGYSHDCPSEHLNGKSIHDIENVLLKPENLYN
Chain of CLR/RAMP1 receptor (O60894 27-148): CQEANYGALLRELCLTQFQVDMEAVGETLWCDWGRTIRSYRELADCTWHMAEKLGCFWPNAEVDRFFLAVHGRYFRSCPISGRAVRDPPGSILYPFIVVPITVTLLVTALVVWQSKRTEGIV

Experimental for CLR/RAMP1 receptor: Using a receptor activation assay, the dose-dependent stimulatory response of peptide agonists of the present invention on a CLR/RAMP1 receptor, a CLR/RAMP2, or a CLR/RAMP3 receptor complex was determined. A cell line carrying the recombinant CLR/RAMP1, CLR/RAMP2, or a CLR/RAMP3 receptor was employed in the assay. Peptide agonist activities were tested, in duplicate, at 10 different concentrations, starting with 1.0 μM and serially diluted 3-fold, in DMSO. […] The CLR/RAMP1 cAMP, CLR/RAMP2 arrestin assays, and CLR/RAMP3 cAMP (DiscoveRx, Fremont, Calif.) were used.
For the analysis of antagonistic activity, the synthetic analogs were pre-incubated with the cells before adding the reference ligand at its EC80.

On to `CCCCCCCCCCCCCCCC(=O)N[C@@H](CCCCN)C(=O)N[C@H](C(=O)N[C@@H](CCCCN)C(=O)N[C@@H](CCCCN)C(=O)N[C@H](C(=O)N[C@@H](CC(C)C)C(=O)N[C@@H](CCCNC(=N)N)C(=O)N[C@H](C(=O)NCC(=O)N[C@H]1CSSC[C@@H](C(=O)N[C@H](C(=O)N[C@H](C(=O)N[C@@H](CCC(N)=O)C(=O)N[C@@H](CCCCN)C(=O)N[C@@H](CC(C)C)C(=O)N[C@@H](C)C(=O)N[C@@H](Cc2c[nH]cn2)C(=O)N[C@@H](CCC(N)=O)C(=O)N[C@H](C(=O)N[C@@H](Cc2ccc(O)cc2)C(=O)N[C@@H](CCC(N)=O)C(=O)N[C@@H](Cc2ccccc2)C(=O)N[C@H](C(=O)N[C@@H](CC(=O)O)C(=O)N[C@@H](CCCCN)C(=O)N[C@@H](CC(=O)O)C(=O)N[C@@H](CCCCN)C(=O)N[C@@H](CC(=O)O)C(=O)N[C@@H](CC(N)=O)C(=O)N[C@@H](CO)C(=O)N[C@@H](C)C(=O)N2CCC[C@H]2C(=O)N[C@H](C(=O)N[C@@H](CC(=O)O)C(=O)N2CCC[C@H]2C(=O)N[C@@H](CO)C(=O)N[C@@H](CO)C(=O)N2CCC[C@H]2C(=O)N[C@@H](Cc2c[nH]cn2)C(=O)N[C@@H](CO)C(=O)N[C@@H](Cc2ccc(O)cc2)C(N)=O)C(C)C)[C@@H](C)O)[C@@H](C)CC)C(C)C)[C@@H](C)O)NC(=O)[C@H]([C@@H](C)O)NC(=O)CNC(=O)[C@H](Cc2ccccc2)NC(=O)[C@H](CCCNC(=N)N)NC1=O)[C@@H](C)O)[C@@H](C)O)[C@@H](C)O` [SEQ ID NO: 38], for which the “HLEC survival (in words)” value in assay [1] is “dose-dependently stimulated; also recorded: significantly promote”.

`CCCCCCCCCCCCCCCC(=O)NCCCC[C@H](NC(=O)[C@@H](NC(C)=O)[C@@H](C)O)C(=O)N[C@@H](CCCCN)C(=O)N[C@H](C(=O)N[C@@H](CC(C)C)C(=O)N[C@@H](CCCNC(=N)N)C(=O)N[C@H](C(=O)NCC(=O)N[C@H]1CSSC[C@@H](C(=O)N[C@H](C(=O)N[C@H](C(=O)N[C@@H](CCC(N)=O)C(=O)N[C@@H](CCCCN)C(=O)N[C@@H](CC(C)C)C(=O)N[C@@H](C)C(=O)N[C@@H](Cc2c[nH]cn2)C(=O)N[C@@H](CCC(N)=O)C(=O)N[C@H](C(=O)N[C@@H](Cc2ccc(O)cc2)C(=O)N[C@@H](CCC(N)=O)C(=O)N[C@@H](Cc2ccccc2)C(=O)N[C@H](C(=O)N[C@@H](CC(=O)O)C(=O)N[C@@H](CCCCN)C(=O)N[C@@H](CC(=O)O)C(=O)N[C@@H](CCCCN)C(=O)N[C@@H](CC(=O)O)C(=O)N[C@@H](CC(N)=O)C(=O)N[C@@H](CO)C(=O)N[C@@H](C)C(=O)N2CCC[C@H]2C(=O)N[C@H](C(=O)N[C@@H](CC(=O)O)C(=O)N2CCC[C@H]2C(=O)N[C@@H](CO)C(=O)N[C@@H](CO)C(=O)N2CCC[C@H]2C(=O)N[C@@H](Cc2c[nH]cn2)C(=O)N[C@@H](CO)C(=O)N[C@@H](Cc2ccc(O)cc2)C(N)=O)C(C)C)[C@@H](C)O)[C@@H](C)CC)C(C)C)[C@@H](C)O)NC(=O)[C@H]([C@@H](C)O)NC(=O)CNC(=O)[C@H](Cc2ccccc2)NC(=O)[C@H](CCCNC(=N)N)NC1=O)[C@@H](C)O)[C@@H](C)O` [SEQ ID NO: 39]: the “HLEC survival (in words)” value in assay [1] is on record as “dose-dependently stimulated; also recorded: significantly promote”.

With `CCCCCCCCCCCCCCCC(=O)N[C@@H](CCCCN)C(=O)N[C@H](C(=O)N[C@@H](CCCCN)C(=O)N[C@@H](CCCCN)C(=O)N[C@H](C(=O)N[C@@H](CC(C)C)C(=O)N[C@@H](CCCNC(=N)N)C(=O)N[C@H](C(=O)NCC(=O)N[C@H]1CSSC[C@@H](C(=O)N[C@H](C(=O)N[C@H](C(=O)N[C@@H](CCC(N)=O)C(=O)N[C@@H](CCCCN)C(=O)N[C@@H](CC(C)C)C(=O)N[C@@H](C)C(=O)N[C@@H](Cc2c[nH]cn2)C(=O)N[C@@H](CCC(N)=O)C(=O)N[C@H](C(=O)N[C@@H](Cc2ccc(O)cc2)C(=O)N[C@@H](CCC(N)=O)C(=O)N[C@@H](Cc2ccccc2)C(=O)N[C@H](C(=O)N[C@@H](CC(=O)O)C(=O)N[C@@H](CCCCN)C(=O)N[C@@H](CC(=O)O)C(=O)N[C@@H](CCCCN)C(=O)N[C@@H](CC(=O)O)C(=O)N[C@@H](CC(N)=O)C(=O)N[C@H](C(=O)N[C@@H](C)C(=O)N2CCC[C@H]2C(=O)N[C@H](C(=O)N[C@@H](CC(=O)O)C(=O)N2CCC[C@H]2C(=O)N[C@@H](CO)C(=O)N[C@@H](CO)C(=O)N2CCC[C@H]2C(=O)N[C@@H](Cc2c[nH]cn2)C(=O)N[C@@H](CO)C(=O)N[C@@H](Cc2ccc(O)cc2)C(N)=O)C(C)C)C(C)C)[C@@H](C)O)[C@@H](C)CC)C(C)C)[C@@H](C)O)NC(=O)[C@H]([C@@H](C)O)NC(=O)CNC(=O)[C@H](Cc2ccccc2)NC(=O)[C@H](CCCNC(=N)N)NC1=O)[C@@H](C)O)[C@@H](C)O)[C@@H](C)O` [SEQ ID NO: 40], in assay [1], the “HLEC survival (in words)” value is “dose-dependently stimulated; also recorded: significantly promote”.

As for `CSCC[C@H](NC(=O)[C@H](CC(C)C)NC(=O)[C@H](CCC(N)=O)NC(=O)[C@H](Cc1c[nH]c2ccccc12)NC(=O)[C@H](CC(C)C)NC(=O)[C@H](CCCNC(=N)N)NC(=O)[C@H](Cc1c[nH]cn1)NC(=O)[C@H](CO)NC(=O)[C@H](CC(C)C)NC(=O)[C@H](CC(N)=O)NC(=O)[C@H](CCC(N)=O)NC(=O)[C@@H](NC(=O)[C@H](CCC(N)=O)NC(=O)[C@@H]1CSSC[C@H](NC(=O)CNC(=O)[C@@H](NC(C)=O)C(C)C)C(=O)N[C@@H](C(C)C)C(=O)N[C@@H](CC(C)C)C(=O)NCC(=O)N[C@@H]([C@@H](C)O)C(=O)N1)C(C)C)C(=O)NCC(=O)N1CCC[C@H]1C(=O)N[C@@H](C)C(=O)NCC(=O)N[C@@H](CCCNC(=N)N)C(=O)N[C@@H](CCC(N)=O)C(=O)N[C@@H](CC(=O)O)C(=O)N[C@@H](CO)C(=O)N[C@@H](C)C(=O)N1CCC[C@H]1C(=O)N[C@H](C(=O)N[C@@H](CC(=O)O)C(=O)N1CCC[C@H]1C(=O)N[C@@H](CO)C(=O)N[C@@H](CO)C(=O)N1CCC[C@H]1C(=O)N[C@@H](Cc1c[nH]cn1)C(=O)N[C@@H](CO)C(=O)N[C@@H](Cc1ccc(O)cc1)C(N)=O)C(C)C` [SEQ ID NO: 52, reference compound], the “HLEC survival (in words)” value in assay [1] is “minimal effects; also recorded: negligible effects”.

As to `CC[C@H](C)[C@H](NC(=O)[C@H](CCC(N)=O)NC(=O)[C@H](Cc1c[nH]cn1)NC(=O)[C@H](C)NC(=O)[C@H](CC(C)C)NC(=O)[C@H](CCCCN)NC(=O)[C@H](CCC(N)=O)NC(=O)[C@@H](NC(=O)[C@@H](NC(=O)[C@@H]1CSSC[C@H](NC(=O)CNC(=O)[C@H](CCCCN)NC(C)=O)C(=O)N[C@@H](CCCNC(=N)N)C(=O)N[C@@H](Cc2ccccc2)C(=O)NCC(=O)N[C@@H]([C@@H](C)O)C(=O)N1)[C@@H](C)O)C(C)C)C(=O)N[C@@H](Cc1ccc(O)cc1)C(=O)N[C@@H](CCC(N)=O)C(=O)N[C@@H](Cc1ccccc1)C(=O)N[C@H](C(=O)N[C@@H](CC(=O)O)C(=O)N[C@@H](CCCCN)C(=O)N[C@@H](CC(=O)O)C(=O)N[C@@H](CCCCN)C(=O)N[C@@H](CC(=O)O)C(=O)N[C@@H](CC(N)=O)C(=O)N[C@@H](CO)C(=O)N[C@@H](C)C(=O)N1CCC[C@H]1C(=O)N[C@H](C(=O)N[C@@H](CC(=O)O)C(=O)N1CCC[C@H]1C(=O)N[C@@H](CO)C(=O)N[C@@H](CO)C(=O)N1CCC[C@H]1C(=O)N[C@@H](Cc1c[nH]cn1)C(=O)N[C@@H](CO)C(=O)N[C@@H](Cc1ccc(O)cc1)C(N)=O)C(C)C)[C@@H](C)O` [SEQ ID NO: 59], the “HLEC survival (in words)” value in assay [1] is reported as “minimal effects; also recorded: negligible effects”.

Consider `CC[C@H](C)[C@H](NC(=O)[C@H](CCC(N)=O)NC(=O)[C@H](Cc1c[nH]cn1)NC(=O)[C@H](C)NC(=O)[C@H](CC(C)C)NC(=O)[C@H](CCCCN)NC(=O)[C@H](CCC(N)=O)NC(=O)[C@@H](NC(=O)[C@@H](NC(C)=O)[C@@H](C)O)C(C)C)C(=O)N[C@@H](Cc1ccc(O)cc1)C(=O)N[C@@H](CCC(N)=O)C(=O)N[C@@H](Cc1ccccc1)C(=O)N[C@H](C(=O)N[C@@H](CC(=O)O)C(=O)N[C@@H](CCCCN)C(=O)N[C@@H](CC(=O)O)C(=O)N[C@@H](CCCCN)C(=O)N[C@@H](CC(=O)O)C(=O)N[C@@H](CC(N)=O)C(=O)N[C@@H](CO)C(=O)N[C@@H](C)C(=O)N1CCC[C@H]1C(=O)N[C@H](C(=O)N[C@@H](CC(=O)O)C(=O)N1CCC[C@H]1C(=O)N[C@@H](CO)C(=O)N[C@@H](CO)C(=O)N1CCC[C@H]1C(=O)N[C@@H](Cc1c[nH]cn1)C(=O)N[C@@H](CO)C(=O)N[C@@H](Cc1ccc(O)cc1)C(N)=O)C(C)C)[C@@H](C)O` [SEQ ID NO: 76], for which the “antagonistic activity toward CLR/RAMP1 and/or CLR/RAMP2 receptor signaling (in words)” value at CLR/RAMP1 receptor (statement covers CGRP-stimulated CLR/RAMP1 and ADM-stimulated CLR/RAMP2) is reported as “mildly improved antagonistic activity”.

`CCCCCCCCCCCCCCCC(=O)N[C@@H](CCCCN)C(=O)N[C@H](C(=O)N[C@@H](CCC(N)=O)C(=O)N[C@@H](CC(N)=O)C(=O)N[C@@H](CC(C)C)C(=O)N[C@@H](CO)C(=O)N[C@@H](Cc1c[nH]cn1)C(=O)N[C@@H](CCCNC(=N)N)C(=O)N[C@@H](CC(C)C)C(=O)N[C@@H](Cc1c[nH]c2ccccc12)C(=O)N[C@@H](CCC(N)=O)C(=O)N[C@@H](CC(C)C)C(=O)N[C@@H](CCSC)C(=O)NCC(=O)N1CCC[C@H]1C(=O)N[C@@H](C)C(=O)NCC(=O)N[C@@H](CO)C(=O)N[C@@H](C)C(=O)N1CCC[C@H]1C(=O)N[C@H](C(=O)N[C@@H](CC(=O)O)C(=O)N1CCC[C@H]1C(=O)N[C@@H](CO)C(=O)N[C@@H](CO)C(=O)N1CCC[C@H]1C(=O)N[C@@H](Cc1c[nH]cn1)C(=O)N[C@@H](CO)C(=O)N[C@@H](Cc1ccc(O)cc1)C(N)=O)C(C)C)C(C)C` [SEQ ID NO: 120]: the “receptor specificity of antagonist” value at CLR/RAMP1 receptor is “CLR/RAMP1-specific”.

Consider `CCCCCCCCCCCCCCCC(=O)N[C@@H](CCCCN)C(=O)N[C@H](C(=O)N[C@@H](CCC(N)=O)C(=O)N[C@@H](CCCCN)C(=O)N[C@@H](CC(C)C)C(=O)N[C@@H](C)C(=O)N[C@@H](Cc1c[nH]cn1)C(=O)N[C@@H](CCC(N)=O)C(=O)N[C@H](C(=O)N[C@@H](Cc1ccc(O)cc1)C(=O)N[C@@H](CCC(N)=O)C(=O)N[C@@H](Cc1ccccc1)C(=O)N[C@H](C(=O)N[C@@H](CC(=O)O)C(=O)N[C@@H](CCCCN)C(=O)N[C@@H](CO)C(=O)N[C@@H](C)C(=O)N1CCC[C@H]1C(=O)N[C@H](C(=O)N[C@@H](CC(=O)O)C(=O)N1CCC[C@H]1C(=O)N[C@@H](CO)C(=O)N[C@@H](CO)C(=O)N1CCC[C@H]1C(=O)N[C@@H](Cc1c[nH]cn1)C(=O)N[C@@H](CO)C(=O)N[C@@H](Cc1ccc(O)cc1)C(N)=O)C(C)C)[C@@H](C)O)[C@@H](C)CC)C(C)C` [SEQ ID NO: 125], for which the “receptor specificity of antagonist” value at CLR/RAMP1 receptor is reported as “pan-specific”.
